Here are results for one substance from patent publication EP1238058B1, “USE OF COLOSTRININ, C[…] AND ANALOGS THEREOF TO PROMOTE NEURAL CELL DIFFERENTIATION” (THE UNIVERSITY OF TEXAS SYSTEM, priority 1999, dated 2001).

The test system of this assay is medullary pheochromocytoma (PC 12) cells. Put plainly: PC12 cell differentiation (morphology) assay. To be noted: TPA 10 ng per ml, negative control. Format: cell-based. Here is the method:
Cells: PC12 cell line derived from medullary pheochromocytoma cells were used to undertake studies described bellow. PC 12 cells were obtained from the American Type Culture Collection and maintained in RPMI-1640 supplemented with 10% fetal bovine serum (HYCLONE Inc), penicillin (100 U/ml) and streptomycin (100 µg/ml).
Methods: To evaluate the effect of colostrum, colostrinin and its component peptides on cell differentiation 3 x 10^4 logarithmically replicating (70% confluence) PC 12 cells were seeded in 24 x well plates and cells were allowed to adhere and grow for 24 hours. Serum containing media were aspirated and replaced for serum-free RPMI containing appropriate amount of antibiotics. In four parallel, increasing concentrations (0.1, 1, 10 and 100 µg per ml) of colostrum, colostrinin and its component peptides were added directly into the media and incubated at 37°C. As a positive control, nerve growth factor (NGF) 7S (Gibco-BRL) was used at 100 ng per ml concentration (Chao et al., Cell, 68, 995-997 (1992); and Marshall et al., Cell, 80, 179-185 (1995)). Phorbol 12-myristate 13-acetate (TPA: 10 ng per ml) was used as a negative control. Eight hours later the media were changed and RPMI-1640 was added containing 1% or 10% fetal bovine serum. The cultures were microscopically investigated 2nd, 4th and 6th days after treatment. […]

With Phorbol 12-myristate 13-acetate [TPA], the “background level of differentiation” value is on record as “less than 0.01%”.
